Patent publication US10758534B2 (Vertex Pharmaceuticals Incorporated, priority 2014, dated 2020)

target: T1, F508del (Homo sapiens, UniProt P13569, DEL508-508); experiment: Protocol 2: FRET membrane potential optical assay (VIPR), identification of correction compounds; assay type: cell-based; settings: F508del CFTR modulator activity; compounds of Table 1; read-out: EC30
T1 construct: expressed in transfected cells
Procedure, shortened: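 Single-addition HTS format: F508del-expressing NIH3T3 cells pre-incubated 16 hrs at 37° C. ± compound, with 27° C. culture as positive control. Channel activation by forskolin 10 μM and genistein 20 μM upon switch to gluconate bath, pH 7.4; read-out is FRET-based depolarization signal.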

T1 sequence (P13569 with tags, fused parts or gaps DEL508-508): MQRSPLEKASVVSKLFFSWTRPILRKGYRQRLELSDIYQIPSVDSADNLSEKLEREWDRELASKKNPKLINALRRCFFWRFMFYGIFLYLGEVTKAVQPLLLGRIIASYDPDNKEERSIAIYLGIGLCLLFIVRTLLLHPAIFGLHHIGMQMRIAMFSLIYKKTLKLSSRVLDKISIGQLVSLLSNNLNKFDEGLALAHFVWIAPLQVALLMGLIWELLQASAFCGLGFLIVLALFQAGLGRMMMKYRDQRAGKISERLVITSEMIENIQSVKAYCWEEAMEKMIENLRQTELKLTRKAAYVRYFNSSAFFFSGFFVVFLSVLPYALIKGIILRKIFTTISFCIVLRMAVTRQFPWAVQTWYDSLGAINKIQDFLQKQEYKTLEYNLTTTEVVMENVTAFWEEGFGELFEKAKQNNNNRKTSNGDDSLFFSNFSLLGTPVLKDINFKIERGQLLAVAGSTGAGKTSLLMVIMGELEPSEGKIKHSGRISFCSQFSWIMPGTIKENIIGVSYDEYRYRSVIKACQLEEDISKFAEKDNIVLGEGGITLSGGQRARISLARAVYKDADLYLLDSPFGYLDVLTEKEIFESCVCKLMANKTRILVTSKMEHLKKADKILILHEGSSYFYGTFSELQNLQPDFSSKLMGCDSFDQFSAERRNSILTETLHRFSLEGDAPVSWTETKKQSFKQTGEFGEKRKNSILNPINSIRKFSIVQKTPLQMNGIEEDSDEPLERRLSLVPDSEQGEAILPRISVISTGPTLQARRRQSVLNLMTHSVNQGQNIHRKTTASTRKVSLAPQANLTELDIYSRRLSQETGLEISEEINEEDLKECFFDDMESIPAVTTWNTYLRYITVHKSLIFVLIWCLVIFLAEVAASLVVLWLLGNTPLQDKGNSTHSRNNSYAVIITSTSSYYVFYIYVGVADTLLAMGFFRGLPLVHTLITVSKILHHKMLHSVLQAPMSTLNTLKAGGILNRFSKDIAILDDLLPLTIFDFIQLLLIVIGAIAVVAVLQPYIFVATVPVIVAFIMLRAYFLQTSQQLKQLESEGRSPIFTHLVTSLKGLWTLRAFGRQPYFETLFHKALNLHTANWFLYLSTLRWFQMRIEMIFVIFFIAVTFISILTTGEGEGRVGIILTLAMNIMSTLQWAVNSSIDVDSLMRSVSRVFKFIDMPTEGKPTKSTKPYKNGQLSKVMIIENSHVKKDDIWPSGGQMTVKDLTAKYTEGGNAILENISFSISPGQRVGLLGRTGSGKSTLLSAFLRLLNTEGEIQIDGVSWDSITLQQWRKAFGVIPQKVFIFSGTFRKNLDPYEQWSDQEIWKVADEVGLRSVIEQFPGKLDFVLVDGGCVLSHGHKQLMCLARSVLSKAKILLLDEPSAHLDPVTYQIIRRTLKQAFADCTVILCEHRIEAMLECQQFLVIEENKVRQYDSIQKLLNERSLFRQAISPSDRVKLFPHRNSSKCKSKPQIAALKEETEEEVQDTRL

Compound | EC30
CC1CN(c2ncccc2C(=O)NS(=O)(=O)c2cccc(OCC3CCOCC3)n2)C(C)(C)C1 (stereo not drawn) [Compound 2032, N—[[6-(tetrahydropyran-4-ylmethoxy)-2-pyridyl]sulfonyl]-2-(2,2,4-trimethylpyrrolidin-1-yl)pyridine-3-carboxamide] | 3000 to 10000 nM
Cc1ccc(O)c(-c2ccc(C(=O)NS(=O)(=O)c3cccc(N)n3)c(N3C[C@@H](C)CC3(C)C)n2)c1 [Compound 2034, N-[(6-amino-2-pyridyl)sulfonyl]-6-(2-hydroxy-5-methyl-phenyl)-2-[(4S)-2,2,4-trimethylpyrrolidin-1-yl]pyridine-3-carboxamide] | < 3000 nM
CC(C)Cc1ccn(-c2ccc(C(=O)NS(=O)(=O)c3cccnc3N)c(N3C[C@@H](C)CC3(C)C)n2)n1 [Compound 2036, N-[(2-amino-3-pyridyl)sulfonyl]-6-(3-isobutylpyrazol-1-yl)-2-[(4S)-2,2,4-trimethylpyrrolidin-1-yl]pyridine-3-carboxamide] | < 3000 nM
Cc1ccc(-c2ccc(C(=O)NS(=O)(=O)c3ccc[nH]c3=O)c(N3C[C@@H](C)CC3(C)C)n2)c(C)c1 [Compound 2037, 6-(2,4-dimethylphenyl)-N-[(2-oxo-1H-pyridin-3-yl)sulfonyl]-2-[(4S)-2,2,4-trimethylpyrrolidin-1-yl]pyridine-3-carboxamide] | < 3000 nM
COc1ccc(Nc2cccc(S(=O)(=O)NC(=O)c3cccnc3N3CC(C)CC3(C)C)n2)cc1OC (stereo not drawn) [Compound 2041, N—[[6-(3,4-dimethoxyanilino)-2-pyridyl]sulfonyl]-2-(2,2,4-trimethylpyrrolidin-1-yl)pyridine-3-carboxamide] | < 3000 nM
CC(C)COc1cc(F)cc(-c2ccc(C(=O)NS(=O)(=O)C3CCNC3)c(N3C[C@@H](C)CC3(C)C)n2)c1 (stereo partly drawn) [Compound 2042, 6-(3-fluoro-5-isobutoxy-phenyl)-N-pyrrolidin-3-ylsulfonyl-2-[(4S)-2,2,4-trimethylpyrrolidin-1-yl]pyridine-3-carboxamide] | < 3000 nM
Cc1ccc(-c2ccc(C(=O)NS(=O)(=O)c3cccc(N)n3)c(N3C[C@@H](C)CC3(C)C)n2)c(O)c1 [Compound 2043, N-[(6-amino-2-pyridyl)sulfonyl]-6-(2-hydroxy-4-methyl-phenyl)-2-[(4S)-2,2,4-trimethylpyrrolidin-1-yl]pyridine-3-carboxamide] | < 3000 nM
CC1CN(c2ncccc2C(=O)NS(=O)(=O)c2cccc(N(C)CC3CC3)n2)C(C)(C)C1 (stereo not drawn) [Compound 2044, N—[[6-[cyclopropylmethyl(methyl)amino]-2-pyridyl]sulfonyl]-2-(2,2,4-trimethylpyrrolidin-1-yl)pyridine-3-carboxamide] | < 3000 nM
C[C@@H]1CN(c2nc(-c3ccccc3F)ccc2C(=O)NS(=O)(=O)N2CC[C@H](N)C2)C(C)(C)C1 [Compound 2045, N-[(3S)-3-aminopyrrolidin-1-yl]sulfonyl-6-(2-fluorophenyl)-2-[(4S)-2,2,4-trimethylpyrrolidin-1-yl]pyridine-3-carboxamide] | 3000 to 10000 nM
C[C@@H]1CN(c2nc(-c3ccc(C(F)(F)F)cc3)ccc2C(=O)NS(=O)(=O)c2cccnc2N)C(C)(C)C1 [Compound 2048, N-[(2-amino-3-pyridyl)sulfonyl]-6-[4-(trifluoromethyl)phenyl]-2-[(4S)-2,2,4-trimethylpyrrolidin-1-yl]pyridine-3-carboxamide] | < 3000 nM
C[C@@H]1CN(c2nc(-c3ccc4cc[nH]c4c3)ccc2C(=O)NS(=O)(=O)c2cccnc2N)C(C)(C)C1 [Compound 2054, N-[(2-amino-3-pyridyl)sulfonyl]-6-(1H-indol-6-yl)-2-[(4S)-2,2,4-trimethylpyrrolidin-1-yl]pyridine-3-carboxamide] | < 3000 nM
CC1CN(c2ncccc2C(=O)NS(=O)(=O)c2cccc(N3CCCC3C(F)(F)F)n2)C(C)(C)C1 (stereo not drawn) [Compound 2055, N—[[6-[2-(trifluoromethyl)pyrrolidin-1-yl]-2-pyridyl]sulfonyl]-2-(2,2,4-trimethylpyrrolidin-1-yl)pyridine-3-carboxamide] | < 3000 nM
C[C@@H]1CN(c2nc(O[C@H]3CCOC3)c(F)cc2C(=O)NS(=O)(=O)c2cccc(N)n2)C(C)(C)C1 [Compound 2056, N-[(6-amino-2-pyridyl)sulfonyl]-5-fluoro-6-[(3S)-tetrahydrofuran-3-yl]oxy-2-[(4S)-2,2,4-trimethylpyrrolidin-1-yl]pyridine-3-carboxamide] | 3000 to 10000 nM
CC1CN(c2ncccc2C(=O)NS(=O)(=O)c2cccc(OC3(C)CCCCCC3)n2)C(C)(C)C1 (stereo not drawn) [Compound 2057, N—[[6-(1-methylcycloheptoxy)-2-pyridyl]sulfonyl]-2-(2,2,4-trimethylpyrrolidin-1-yl)pyridine-3-carboxamide] | < 3000 nM
CC1CN(c2ncccc2C(=O)NS(=O)(=O)c2cccc(OC3CC4CCC3(C)C4(C)C)n2)C(C)(C)C1 (stereo not drawn) [Compound 2059, N—[[6-(1,7,7-trimethylnorbornan-2-yl)oxy-2-pyridyl]sulfonyl]-2-(2,2,4-trimethylpyrrolidin-1-yl)pyridine-3-carboxamide] | < 3000 nM
CC1CN(c2ncccc2C(=O)NS(=O)(=O)c2cccc(Oc3ccc(Cl)c(Cl)c3)n2)C(C)(C)C1 (stereo not drawn) [Compound 2061, N—[[6-(3,4-dichlorophenoxy)-2-pyridyl]sulfonyl]-2-(2,2,4-trimethylpyrrolidin-1-yl)pyridine-3-carboxamide] | < 3000 nM

Now from value to compound:

EC30 | Compound
< 3000 nM | COc1cccc(-c2cnc(N3CC(C)CC3(C)C)c(C(=O)NS(=O)(=O)c3cccc(N)n3)c2)c1 (stereo not drawn) [Compound 2031, N-[(6-amino-2-pyridyl)sulfonyl]-5-(3-methoxyphenyl)-2-(2,2,4-trimethylpyrrolidin-1-yl)pyridine-3-carboxamide]
< 3000 nM | COc1cccc(F)c1-c1ccc(C(=O)NS(=O)(=O)c2cccnc2N)c(N2C[C@@H](C)CC2(C)C)n1 [Compound 2033, N-[(2-amino-3-pyridyl)sulfonyl]-6-(2-fluoro-6-methoxy-phenyl)-2-[(4S)-2,2,4-trimethylpyrrolidin-1-yl]pyridine-3-carboxamide]
< 3000 nM | C[C@@H]1CN(c2nc(-c3cc(F)c(F)cc3F)ccc2C(=O)NS(=O)(=O)c2cccnc2N)C(C)(C)C1 [Compound 2035, N-[(2-amino-3-pyridyl)sulfonyl]-6-(2,4,5-trifluorophenyl)-2-[(4S)-2,2,4-trimethylpyrrolidin-1-yl]pyridine-3-carboxamide]
< 3000 nM | CC1CN(c2ncccc2C(=O)NS(=O)(=O)c2cccc(OC3CCCC(C)(C)C3)n2)C(C)(C)C1 (stereo not drawn) [Compound 2038, N—[[6-(3,3-dimethylcyclohexoxy)-2-pyridyl]sulfonyl]-2-(2,2,4-trimethylpyrrolidin-1-yl)pyridine-3-carboxamide]
< 3000 nM | C[C@@H]1CN(c2nc(-c3ccccc3C(F)(F)F)ccc2C(=O)NS(=O)(=O)c2cccnc2N)C(C)(C)C1 [Compound 2040, N-[(2-amino-3-pyridyl)sulfonyl]-6-[2-(trifluoromethyl)phenyl]-2-[(4S)-2,2,4-trimethylpyrrolidin-1-yl]pyridine-3-carboxamide]
< 3000 nM | C[C@@H]1CN(c2nc(-c3cc(F)ccc3O)ccc2C(=O)NS(=O)(=O)c2cccnc2N)C(C)(C)C1 [Compound 2046, N-[(2-amino-3-pyridyl)sulfonyl]-6-(5-fluoro-2-hydroxy-phenyl)-2-[(4S)-2,2,4-trimethylpyrrolidin-1-yl]pyridine-3-carboxamide]
3000 to 10000 nM | C[C@@H]1CN(c2nc(C3CC(C)(C)CCC3O)ccc2C(=O)NS(=O)(=O)c2cccnc2N)C(C)(C)C1 (stereo partly drawn) [Compound 2047, N-[(2-amino-3-pyridyl)sulfonyl]-6-(2-hydroxy-5,5-dimethyl-cyclohexyl)-2-[(4S)-2,2,4-trimethylpyrrolidin-1-yl]pyridine-3-carboxamide]
< 3000 nM | CC1CN(c2ncccc2C(=O)NS(=O)(=O)c2cccc(NC(C)c3cccc4ccccc34)n2)C(C)(C)C1 (stereo not drawn) [Compound 2049, N—[[6-[1-(1-naphthyl)ethylamino]-2-pyridyl]sulfonyl]-2-(2,2,4-trimethylpyrrolidin-1-yl)pyridine-3-carboxamide]
< 3000 nM | CCOc1ccccc1-c1ccc(C(=O)NS(=O)(=O)N2CC[C@H](N)C2)c(N2C[C@@H](C)CC2(C)C)n1 [Compound 2050, N-[(3S)-3-aminopyrrolidin-1-yl]sulfonyl-6-(2-ethoxyphenyl)-2-[(4S)-2,2,4-trimethylpyrrolidin-1-yl]pyridine-3-carboxamide]
< 3000 nM | CCOc1ccc(F)cc1-c1ccc(C(=O)NS(=O)(=O)c2ccc[nH]c2=O)c(N2C[C@@H](C)CC2(C)C)n1 [Compound 2051, 6-(2-ethoxy-5-fluoro-phenyl)-N-[(2-oxo-1H-pyridin-3-yl)sulfonyl]-2-[(4S)-2,2,4-trimethylpyrrolidin-1-yl]pyridine-3-carboxamide]
< 3000 nM | Cc1cc(-c2ccc(C(=O)NS(=O)(=O)c3cccnc3N)c(N3C[C@@H](C)CC3(C)C)n2)ccc1F [Compound 2052, N-[(2-amino-3-pyridyl)sulfonyl]-6-(4-fluoro-3-methyl-phenyl)-2-[(4S)-2,2,4-trimethylpyrrolidin-1-yl]pyridine-3-carboxamide]
< 3000 nM | CC1CN(c2ncccc2C(=O)NS(=O)(=O)c2cccc(NC3CCCC3)n2)C(C)(C)C1 (stereo not drawn) [Compound 2053, N—[[6-(cyclopentylamino)-2-pyridyl]sulfonyl]-2-(2,2,4-trimethylpyrrolidin-1-yl)pyridine-3-carboxamide]
< 3000 nM | CCOC(=O)c1cccc(Nc2cccc(S(=O)(=O)NC(=O)c3cccnc3N3CC(C)CC3(C)C)n2)c1 (stereo not drawn) [Compound 2060, ethyl 3-[[6-[[2-(2,2,4-trimethylpyrrolidin-1-yl)pyridine-3-carbonyl]sulfamoyl]-2-pyridyl]amino]benzoate]
< 3000 nM | CC1CN(c2ncc(/C=C/C3CCCCC3)cc2C(=O)NS(=O)(=O)c2cccc(N)n2)C(C)(C)C1 (stereo not drawn) [Compound 2063, N-[(6-amino-2-pyridyl)sulfonyl]-5-[(E)-2-cyclohexylvinyl]-2-(2,2,4-trimethylpyrrolidin-1-yl)pyridine-3-carboxamide]
